Reference: article PMC5864073, “A D-enantiomer of the antimicrobial peptide GL13K evades antimicrobial resistance in the Gram positive bacteria Enterococcus faecalis and Streptococcus gordonii” (PLoS ONE, 2018)
Where a SMILES comes first, the peptide text is derived from it. [ ]: non-standard residue; d: D form.

What was measured:
[1] = test system: S. gordonii DL1 dltA; assay: Minimal inhibitory concentration, broth dilution; format: cell-based, Streptococcus gordonii; conditions: THB, 20 h, 37°C, OD600, mean ± SEM
Protocol: (§1) The minimal inhibitory concentration (MIC) assays were performed essentially as described for cationic AMPs, but using streptococcal growth-friendly THB without the addition of blood or serum components. A working stock of 1-5x10^5 CFU/ml in 90 or 100 μl THB was added to 10 or 20 μl of a 2-fold serial peptide dilution in 0.01% acetic acid and incubated for 20 h at 37°C in 96-well polypropylene plates. The OD at 600 nm (OD600) was determined in a Synergy HT plate reader (BioTek, Winooski, VT). Control wells for growth without peptide and growth medium without bacteria were included. Bacterial cell numbers in the inoculum were verified by colony count.

[2] = test system: S. gordonii DL1 atlS; assay: Minimal inhibitory concentration, broth dilution; format: cell-based, Streptococcus gordonii; conditions: THB, 20 h, 37°C, OD600, mean ± SEM
Protocol: as §1

[3] = test system: E. faecalis OG1RF (wild-type); assay: Minimal inhibitory concentration, broth dilution; format: cell-based, Enterococcus faecalis; set-up: key to MIC (mg/L): >: Mean MIC is above the tested concentration range (this value was set at 200 mg/L for data analysis); conditions: THB, 20 h, 37°C
Protocol: as §1

[4] = test system: S. gordonii DL1 (wild-type); assay: Selection for peptide resistance, serial MIC assays; format: cell-based, Streptococcus gordonii; conditions: repeated treatment with sub-inhibitory concentrations, 2–3 experiments
Protocol: (§2) To investigate potential resistance development against the GL13K peptides, dilutions of the peptides were prepared and incubated as described for the MIC assay. The next day (day 0), the MIC was recorded and the culture in the well with the highest peptide concentration that allowed growth (i.e 0.5 x MIC) was diluted 1:100 and used as an inoculum for the next round of selection in a new MIC assay and so forth until a stable plateau of resistance was reached.
(§3) Fig 6 Development of resistance in S. gordonii. MICs for L-GL13K (circles) and D-GL13K (squares) were recorded on consecutive days using S. gordonii DL1 (wild-type) (open symbols) (D-enantiomer only) and dltA (closed symbols). The MIC for each day is expressed relative to the starting MIC (day 0). Data from 2–3 experiments are shown as mean ± range.

[5] = test system: S. gordonii dltA mutant; assay: as above; format: cell-based, Streptococcus gordonii; conditions: repeated treatment with sub-inhibitory concentrations, 2–3 experiments
Protocol: as §2, §3

[6] = test system: E. faecalis dltA mutant (TX5427); assay: as above; format: cell-based, Enterococcus faecalis; conditions: serial passage at 0.5 x MIC, L-GL13K after two rounds, D-GL13K after seven rounds, three experiments
Protocol: as §2
as §3, with “4” for “6”, “E. faecalis.” for “S. gordonii.”, “E. faecalis OG1RF” for “S. gordonii DL1”, “three” for “2–3”, “SEM.” for “range.”

[7] = test system: E. faecalis OG1RF; assay: Bactericidal activity in PBS+0.05% Triton X-100; format: cell-based, Enterococcus faecalis; conditions: PBS+0.05% Triton X-100, peptide 100 mg/L, 2 h, CFU on THA, N = 5
Protocol: (§4) The lysis assay followed an established protocol for bacterial autolysis with minor modifications. Exponentially growing cells were washed twice in PBS then washed once in ice-cold dH2O. The bacteria were incubated in PBS with 0.05% Triton X-100 and peptides at a concentration of 100 mg/L. OD600 was monitored spectrophotometrically for 180 min. In some experiments, the cells were incubated with the peptides for 2h in PBS+0.05% Triton X-100 and then cultured on THA to enumerate surviving cells.
(§5) Fig 2 Effect of GL13K peptides on Triton X-100 induced autolysis. E. faecalis OG1RF (A) or the autolysis-deficient strain TX5128 (B) were incubated in PBS with 0.05% Triton X-100 in the absence of peptide (control) or in the presence of 100 mg/L of L-GL13K or D-GL13K (D). The OD600 was recorded for 180 min and expressed as a percent of starting OD600 of the control sample. (C): Bactericidal activity of GL13K peptides in PBS+0.05% Triton X-100. E. faecalis OG1RF were incubated with 0.05% Triton X-100 in the absence of peptide (Ctrl) or with L-GL13K or D-GL13K for 2h. Surviving CFU were enumerated and are shown as mean ± SEM (N = 5). Peptide treated samples were compared to the untreated control by Kruskal-Wallis test with Dunn’s multiple comparison post-test. n.s., not significant.

[8] = test system: E. faecalis OG1RF; assay: Triton X-100 induced bacterial autolysis assay; format: cell-based, Enterococcus faecalis; conditions: PBS with 0.05% Triton X-100, peptide 100 mg/L, OD600 for 180 min
Protocol: as §4, §5

[9] = test system: wild-type E. faecalis; assay: Bactericidal activity in sodium phosphate buffer; format: cell-based, Enterococcus faecalis; conditions: 10^8 CFU/ml wild-type E. faecalis, no energy source, 10 mM sodium-phosphate pH 7.4, 2 h, 37°C, spotted on THA; D N = 4, L N = 3
Protocol: These assays were performed according to our established protocol with some modifications. Cells were washed three times in 0.9% NaCl and five μl of washed cells (10^9 CFU/ml) were added to the peptides diluted 2-fold (128 to 4 mg/L) in 45 μl of 10 mM sodium-phosphate, pH 7.4. The samples were incubated at 37°C for 2 h and 10 μl were then spotted on THA plates to assess bactericidal activity.

[10] = test system: S. gordonii DL1 (wild-type); assay: Minimal inhibitory concentration, broth dilution; format: cell-based, Streptococcus gordonii; set-up: key: >: Mean MIC is above the tested concentration range (this value was set at 200 mg/L for data analysis); conditions: THB, 20 h, 37°C
Protocol: as §1

[11] = test system: E. faecalis OG1RF dltA (TX5427); assay: Minimal inhibitory concentration, broth dilution; format: cell-based, Enterococcus faecalis; conditions: THB, 20 h, 37°C, OD600, mean ± SEM
Protocol: as §1

[12] = test system: E. faecalis OG1RF ebsG; assay: Minimal inhibitory concentration, broth dilution; format: cell-based, Enterococcus faecalis; set-up: key: >: Mean MIC is above the tested concentration range (this value was set at 200 mg/L for data analysis); conditions: THB, 20 h, 37°C, symbol
Protocol: as §1

[13] = test system: E. faecalis OG1RF::pMSP7551; assay: Minimal inhibitory concentration, broth dilution; format: cell-based, Enterococcus faecalis; set-up: key: >: Mean MIC is above the tested concentration range (this value was set at 200 mg/L for data analysis); conditions: E. faecalis OG1RF::pMSP7551 (un-induced); THB, 20 h, 37°C; symbol
Protocol: as §1

[14] = test system: E. faecalis OG1RF::pMSP7551+nisin; assay: Minimal inhibitory concentration, broth dilution; format: cell-based, Enterococcus faecalis; set-up: key: >: Mean MIC is above the tested concentration range (this value was set at 200 mg/L for data analysis); conditions: E. faecalis OG1RF::pMSP7551+nisin (induced); THB, 20 h, 37°C; symbol
Protocol: as §1

[15] = test system: E. faecalis TX5128 (gelE-, SprE-); assay: Minimal inhibitory concentration, broth dilution; format: cell-based, Enterococcus faecalis; set-up: key: >: Mean MIC is above the tested concentration range (this value was set at 200 mg/L for data analysis); conditions: THB, 20 h, 37°C
Protocol: as §1

[16] = test system: vancomycin-resistant E. faecalis V583; assay: Minimal inhibitory concentration, broth dilution; format: cell-based, Enterococcus faecalis; set-up: key: >: Mean MIC is above the tested concentration range (this value was set at 200 mg/L for data analysis); conditions: THB, 20 h, 37°C, symbol
Protocol: as §1

[17] = test system: conditioned supernatant of protease-deficient E. faecalis (TX5128); assay: Proteolysis of peptide by conditioned culture supernatant (P. aeruginosa Xen41 bioassay); format: in vitro ADME, Enterococcus faecalis; conditions: conditioned sterile-filtered supernatant of protease-deficient E. faecalis TX5128, peptide 32 mg/L, 2 h, 37°C; bioluminescence read-out after 15 min; three independent experiments
Protocol: (§6) To test proteolytic processing of GL13K peptides, overnight bacterial cultures were centrifuged (5 min, 13,000 g) and the conditioned supernatants were sterile-filtered (0.22 μm, Corning). Filtered supernatant (16.8 μl) was incubated with 3.2 μl (3.2 μg) peptide at 37°C for 2 h to allow bacterial proteases in the supernatant to process the peptide. To determine residual peptide activity, 70 μl of 10 mM sodium phosphate buffer, pH 7.4 was added to each sample and then supplemented with 10 μl (10^8 CFU) of bioluminescent Pseudomonas aeruginosa Xen41 (Caliper Lifesciences; now Perkin Elmer, MA) that had been washed three times in 0.9% NaCl (final maximal peptide concentration 32 mg/L). Viability of the indicator bacteria was determined after 15 min incubation at 37°C by determining bioluminescence in a Synergy HT plate reader. The luminescence detected in the absence of added peptide was used as a measure of 100% proteolysis.
(§7) Fig 1 Relative proteolysis of GL13K peptides. (A): Wild-type (OG1RF) or the protease-negative strain (TX5128) of E. faecalis was cultured on THA containing 3% gelatin. Gelatinase activity was visualized as a turbid halo around the bacterial colonies; (B): L-GL13K (L) or D-GL13K (D) (32 mg/L) was incubated with conditioned supernatant of wild-type (OG1RF) or the protease-negative strain (TX5128) of E. faecalis for 2 h. Residual peptide activity was determined by adding bioluminescent P. aeruginosa Xen41 to the mixture. Bioluminescence from surviving bacteria was used as a measure of proteolytic degradation of each peptide and expressed relative to bacterial bioluminescence in the absence of peptides (equivalent to 100% proteolysis). Data are shown as mean ± SEM from three independent experiments and were analyzed by paired t-test for each strain. n.s., not significant.

[18] = test system: conditioned supernatant of wild-type E. faecalis (OG1RF); assay: as above; format: in vitro ADME, Enterococcus faecalis; conditions: conditioned sterile-filtered supernatant of E. faecalis OG1RF, peptide 32 mg/L, 2 h, 37°C; bioluminescence read-out after 15 min; three independent experiments
Protocol: as §6, §7

[19] = test system: E. faecalis OG1RF biofilm; assay: Biofilm assay (Calgary device); format: cell-based, Enterococcus faecalis; conditions: 24 h biofilm of OG1RF, peptide 100 mg/L, 4 h, CFU enumerated
Protocol: (§8) E. faecalis OG1RF, TX5427 or V583 were cultured in a Calgary device for 24h in THB. Biofilms were treated with peptides (100 mg/L) for 4h and surviving cells were sonicated and plated on THA for enumeration of CFUs.
(§9) Fig 3 Effect of GL13K peptides on biofilms of E. faecalis. Twenty-four hour biofilms of OG1RF; OG1RF dltA or V583 were treated with 100 mg/L of L-GL13K (L) or D-GL13K (D). Surviving CFU were enumerated from each peg and expressed relative to the mean CFU recovered from pegs of wild-type cells treated with buffer alone (OG1RF—C). Data from 2–4 experiments are expressed as mean ± SEM (N = 6–13). V583 was only treated with D-GL13K.

[20] = test system: E. faecalis OG1RF dltA (TX5427) biofilm; assay: Biofilm assay (Calgary device); format: cell-based, Enterococcus faecalis; conditions: 24 h biofilm of OG1RF dltA, peptide 100 mg/L, 4 h, CFU relative to the wild-type biofilm
Protocol: as §8, §9

[21] = test system: wild-type E. faecalis (OG1RF); assay: Selection for peptide resistance, serial MIC assays; format: cell-based, Enterococcus faecalis; conditions: serial passage at 0.5 x MIC
Protocol: as §2
as §3, with “4” for “6”, “E. faecalis.” for “S. gordonii.”, “E. faecalis OG1RF” for “S. gordonii DL1”, “three” for “2–3”, “SEM.” for “range.”

[22] = test system: vancomycin-resistant E. faecalis V583 biofilm; assay: Biofilm assay (Calgary device); format: cell-based, Enterococcus faecalis; conditions: 24 h biofilm of V583, peptide 100 mg/L, 4 h, CFU enumerated
Protocol: as §8, §9

SMILES	Increase of MIC relative to starting MIC (day 0) [4]	Increase of MIC relative to starting MIC (day 0) [5]	Increase of MIC relative to starting MIC (day 0) [6] [fold]	Reduction of viable cells under autolysis conditions [7]	Effect on Triton X-100 induced autolysis (OD600) [8]	Peptide concentration required for complete killing [9] [mg/L]	Proteolysis of peptide (loss of activity against bioluminescent P. aeruginosa Xen41) [17]	Reduction of viable biofilm CFU [19]	Reduction of viable biofilm CFU [20]	further results
CC[C@H](C)[C@H](NC(=O)[C@H](CCCCN)NC(=O)CN)C(=O)N[C@H](C(=O)N[C@@H](CCCCN)C(=O)N[C@@H](CC(C)C)C(=O)N[C@@H](CCCCN)C(=O)N[C@@H](C)C(=O)N[C@@H](CO)C(=O)N[C@@H](CC(C)C)C(=O)N[C@@H](CCCCN)C(=O)N[C@@H](CC(C)C)C(=O)N[C@@H](CC(C)C)C(N)=O)[C@@H](C)CC [L-GL13K, Gly-Lys-Ile-Ile-Lys-Leu-Lys-Ala-Ser-Leu-Lys-Leu-Leu-NH2] (H-GKIIKLKASLKLL-NH2; N-terminus assumed)	6 fold	16 fold	8	small, yet non-significant, reduction of cell numbers	somewhat reduced autolysis	48 ± 23	did not show significant proteolysis	ineffective	three orders of magnitude	MIC [1]: 11 ± 3 µg/mL; MIC [2]: 63 ± 8 µg/mL; MIC ([3]; 1-5x10^5 CFU/ml, OD600, mean ± SEM): > 512 µg/mL; MIC (mg/L) ([3]; OD600, symbol): >; MIC (mg/L) ([10]; OD600, mean ± SEM): resistant; MIC (mg/L) ([10]; symbol): >; MIC [11]: 70 ± 17 µg/mL; MIC (mg/L) [12]: >; MIC (mg/L) [13]: >; MIC (mg/L) [14]: >; MIC (mg/L) ([15]; OD600, mean ± SEM): did not inhibit growth; MIC (mg/L) ([15]; symbol): >; MIC (mg/L) [16]: >; Proteolysis of peptide (loss of activity against bioluminescent P. aeruginosa Xen41) [18]: almost complete proteolysis
CC[C@@H](C)[C@@H](NC(=O)[C@@H](CCCCN)NC(=O)CN)C(=O)N[C@@H](C(=O)N[C@H](CCCCN)C(=O)N[C@H](CC(C)C)C(=O)N[C@H](CCCCN)C(=O)N[C@H](C)C(=O)N[C@H](CO)C(=O)N[C@H](CC(C)C)C(=O)N[C@H](CCCCN)C(=O)N[C@H](CC(C)C)C(=O)N[C@H](CC(C)C)C(N)=O)[C@H](C)CC [D-GL13K] (H-G[dK][dI][dI][dK][dL][dK][dA][dS][dL][dK][dL][dL]-NH2; N-terminus and C-terminus assumed)	little change of the MIC	little change of the MIC	2	3 log10	no autolysis was seen	15 ± 10	did not show significant proteolysis	3 log10	highly effective	Increase of MIC relative to starting MIC (day 0) [21]: did not substantially increase the MIC; Reduction of viable biofilm CFU [22]: 3 log10
